# Assay results as given in publication PMC5000617, “Antiproliferative and Pro-Apoptotic Effect of Novel Nitro-Substituted Hydroxynaphthanilides on Human Cancer Cell Lines” (International Journal of Molecular Sciences, 2016).
# Tests used:
# THP-1 cells [1] = experiment: WST-1 cell proliferation assay, THP-1; format: cell-based, human
# Experimental: Initially, we examined the effect of six nitro-substituted hydroxynaphthanilides on the proliferation of human leukaemia and breast carcinoma cell lines, using Water Soluble Tetrazolium Salts-1 (WST-1) assay. For such analyses, THP-1 and MCF-7 cells were treated with the compounds at concentrations ranging from 0.5 to 20 μM for 24 h. […] The inhibitory effect of 2 and 6 was statistically significant (p < 0.001) starting from the concentration of 2.5 and 5 μM in THP-1 and MCF-7 cells, respectively. From the concentration-response curves, the IC50 values were determined.
# (§1) THP-1 human monocytic leukemia cell line, MCF-7 human breast adenocarcinoma cells and 3T3-L1 mouse embryonic fibroblast were purchased from the European Collection of Cell Cultures (ECACC, Salisbury, UK). Cells were routinely tested for the absence of mycoplasma (Hoechst 33258 staining method). THP-1 cells were maintained in RPMI 1640 culture medium containing 2 mM L-glutamine; MCF-7 and 3T3-L1 cells were cultured in DMEM medium. All of the culture media were supplemented with 10% heat-inactivated FBS and antibiotics (100 U/mL penicillin and 100 μg/mL streptomycin). Cells were maintained at 37 °C in a humidified atmosphere containing 5% CO2.
# (§2) Cell proliferation was evaluated using Cell Proliferation Reagent WST-1 (2-(4-iodophenyl)-3-(4-nitrophenyl)-5-(2,4-disulfophenyl)-2H-tetrazolium) (Roche Diagnostics, Mannheim, Germany) according to the manufacturer´s instructions. THP-1 (5 × 10^4 cells/100 μL culture medium per well), MCF-7 cells (1 × 10^4 cells/100 μL per well), and 3T3-L1 (2.5 × 10^3 cells/100 μL per well) were cultured in 96-well plates in triplicate. The measurement was performed using Synergy 2 Multi-Mode Microplate Reader (BioTek, Winooski, VT, USA) after 24 h incubation of cells with tested compounds dissolved in DMSO and subsequently in RPMI 1640 to final concentration ranging 0.5–20 μM in the assays. Cell viability was assessed by dye exclusion test. THP-1 (2 × 10^5 cells/mL per well) and MCF-7 cells (8 × 10^4 cells/mL per well) were incubated in 24-well plates with the indicated concentrations of compounds for 24 h. The number of viable cells was determined using hemocytometer after their staining with a solution of erythrosin B (0.1% erythrosin B (w/v) in PBS). The assays were conducted in triplicate. The IC50 and LC50 values were calculated from fitted concentration-response curves using GraphPad Prism 5.00 software (GraphPad Software, San Diego, CA, USA).
# [2] = Erythrosin B dye exclusion viability test, THP-1; format: cell-based; details: human, THP-1 cells; erythrosin B exclusion test, 24 h, mean ± SD; read-out: THP-1 LC50
# Experimental: (§3) Subsequently, for the comparison of the antiproliferative and cytotoxic effects we assessed the cell viability after 24 h treatment with compounds 1–6 in both tumour cell lines using the dye exclusion test.
# as §1, §2
# [3] = Erythrosin B dye exclusion viability test, MCF-7; format: cell-based; details: human, MCF-7 cells; erythrosin B exclusion test, 24 h, mean ± SD; read-out: MCF-7 LC50
# Experimental: as §3, §1, §2
# MCF-7 cells = experiment: Erythrosin B dye exclusion viability test, MCF-7; format: cell-based; details: MCF-7, 24 h, vs control
# Experimental: as §3, §1, §2
# [4] = Annexin V-FITC/PI apoptosis assay by flow cytometry, THP-1; format: cell-based, human; details: human, THP-1 cells, representative dot plot, read-out: quadrant I: viable cells
# Experimental: (§4) Staining of cells by Annexin V-FITC conjugate reflects the externalization of phosphatidylserine on the outer surface of the cell membrane as one of the early indicators of apoptosis.
# (§5) Early and late stages of apoptosis were detected using Annexin V-FITC Kit—Apoptosis Detection Kit faccording to the manufacturer´s instructions. […] At each time-point of incubation (12, 18, and 24 h) the cells were washed with ice-cold PBS prior to being resuspended at a concentration of 5 × 10^6 cells/mL in a total volume of 100 μL of 1× binding buffer. Annexin V-FITC solution (final concentration 0.25 μg/mL) and PI (final concentration 12.5 μg/mL) were added to each sample; the cell suspension was kept on ice and incubated for 15 min in the dark. After that, the analysis was carried out by flow cytometry. The data were evaluated using Kaluza Flow Cytometry Analysis 1.2. Per sample, a total number of 2 × 10^4 cells were analysed.
# THP-1 cells [5] = experiment: as above; format: cell-based, human
# Experimental: as §4, §5
# cyclin E1 = experiment: Western blot of cyclin E1 in MCF-7 cells; format: cell-based, human; details: MCF-7, 24 h
# Experimental: (§6) Additionally, the cell cycle analysis allows determining the presence of a subdiploid cell population as a characteristic marker of cells with fractional DNA content. A significant increase (p < 0.001) of the sub-G1 peak was found only after the treatment with 5 µM of compound 2 in THP-1 cells, where an approximately eight-fold increase was observed compared to the drug-free control (Figure 4).
# (§7) For Western blotting, cells were washed with PBS and lysed in lysis buffer (100 mM Tris-HCl, pH = 6.8; 20% glycerol; 1% SDS) containing protease and phosphatase inhibitor cocktails. Protein concentration was measured using Roti®-Quant universal (Carl Roth, Karsruhe, Germany) according to the manufacturer’s instructions. Cell lysates were supplemented with bromophenol blue (final concentration 0.01% (w/v)) and β-mercaptoethanol (final concentration 1% (v/v)) prior to being heated for 5 min at 95 °C. Equal amounts of protein (10 μg) were loaded into a 12% polyacrylamide gel, separated by SDS-polyacrylamide gel electrophoresis and subsequently electrotransferred onto nitrocellulose membranes. Reversible Ponceau S. staining was performed to assess equal sample loading. […] The intensity of bands was semi-quantitatively analysed using the ImageJ software (National Institute of Mental Health, Bethesda, MD, USA).
# cyclin B1 = experiment: Western blot of cyclin B1 in THP-1 cells; format: cell-based, human; details: THP-1, 24 h
# Experimental: as §6, §7
# caspase 3 = experiment: Western blot of caspase 3 in THP-1 cells; format: cell-based, human; details: THP-1, 10 μM, 24 h
# Experimental: Most of the apoptotic signalling pathways are controlled by caspases that belong to a group of cysteine proteases. To assess whether compound 2 affects these signalling cascades and which pathway is activated (intrinsic or extrinsic), the activities of caspase 3, caspase 9, and caspase 8 were evaluated using Western blot analysis.
# as §7
smiles,measurement,setting,value
"O=C(Nc1cccc([N+](=O)[O-])c1)c1cc2ccccc2cc1O [Compound 2, 3-hydroxy-N-(3-nitrophenyl)naphthalene-2-carboxamide]",IC50,"THP-1 cells [1]; Homo sapiens, THP-1, WST-1, 24 h, 0.5-20 μM, mean ± SD",3.06 ± 0.206 µM
same,effect on cell proliferation,"THP-1 cells [1]; THP-1, 0.5-20 μM, 24 h",inhibit cell growth in both cell lines in a dose-dependent manner
same,concentration from which the inhibitory effect on proliferation was statistically significant (p < 0.001),"THP-1 cells [1]; THP-1, 24 h",2.5 µM
same,CC50 at 24 h,[2],7.91 ± 0.24 µM
same,CC50 at 24 h,[3],> 20 µM
same,effect on cell viability,MCF-7 cells,Neither compound 2 nor 6 reduced cell viability under 50%
same,"viability at 12 h, 2.5 µM","[4]; THP-1, 2.5 μM, 12 h",92.1%
same,"viability at 18 h, 2.5 µM","[4]; THP-1, 2.5 μM, 18 h",90.2%
same,"viability at 24 h, 2.5 µM","[4]; THP-1, 2.5 μM, 24 h",87.8%
same,"viability at 12 h, 5 µM","[4]; THP-1, 5 μM, 12 h",85.8%
same,"viability at 18 h, 5 µM","[4]; THP-1, 5 μM, 18 h",76.7%
same,"viability at 24 h, 5 µM","[4]; THP-1, 5 μM, 24 h",75.7%
same,"viability at 12 h, 10 µM","[4]; THP-1, 10 μM, 12 h",64.9%
same,"viability at 18 h, 10 µM","[4]; THP-1, 10 μM, 18 h",57.2%
same,"viability at 24 h, 10 µM","[4]; THP-1, 10 μM, 24 h",44.6%
same,double-stained (late apoptotic/secondary necrotic) cells,"THP-1 cells [5]; THP-1, 10 µM, 12 h, mean",22.48%
same,proportion of early apoptotic cells,"THP-1 cells [5]; THP-1, 10 µM, 12 h, mean, control 2.41%",9.37%
same,double-stained (late apoptotic/secondary necrotic) cells,"THP-1 cells [5]; THP-1, 10 µM, 24 h, mean",41.88%
same,pro-apoptotic effect,"THP-1 cells [5]; THP-1, 2.5, 5, 10 µM, 12, 18, 24 h",induced a dose-dependent increase of the percentage of early apoptotic as well as late apoptotic/secondary necrotic
same,expression of cyclin E1,cyclin E1,dose-dependent decrease in expression of cyclin E1
same,total protein levels of cyclin B1,cyclin B1,total protein levels of cyclin B1 were not changed
same,decrease of pro-caspase 3 (inactive form) compared to control,caspase 3,approximately two-fold
same,increase of active caspase 3 level in comparison to control,caspase 3,approximately two-fold
